Laboratory results: paper PMC7898822, “RNA‐PROTACs: Degraders of RNA‐Binding Proteins” (Angewandte Chemie (International Ed. in English), 2020)
Oligonucleotides are written 5' to 3', each unit as a sugar letter and its base; * is a phosphorothioate linkage, no mark a phosphodiester; rarer units and linkages stand in square brackets, end groups in braces. Plain capitals give the bases only. {FAM} = fluorescein (FAM) label; r = 2'-OH (RNA)

Tests used:
[1] = system: QKI (pDEST-Myc-QKI); assay: Ubiquitination assay of Myc-QKI (negative control RBP) in 22Rv1 cells; type: cell-based; conditions: pDEST-Myc-QKI and HA-Ub, 500 nM, 48 h
Experimental: (§1) Next, we investigated the ability of ORN3P1 and ORN7P1 to mediate ubiquitination of Lin28 in cells, using a previously described protocol. ^[32] Cells from the prostate cancer cell line 22RV1, which express very low levels of Lin28, were co‐transfected with two plasmids expressing pCMV‐myc‐Lin28A and HA‐tagged polyubiquitin (HA‐Ub).
(§2) After 48 h of incubation with ORN3P1 and ORN7P1, the tagged Lin28 (and the control QKI) was immunoprecipitated using an anti‐Myc antibody. The isolated protein was then analyzed by western blotting using the anti‐HA and anti‐c‐Myc antibodies. Consistent with other previously described PROTAC reagents,[ ^32 , ^33 ]
(§3) The protein extracts (12-17 µg) were run on a 4-20% SDS-PAGE and transferred on a nitrocellulose blotting membrane 0.22 µm (GE Healthcare) using the Trans-Blot transfer device (Biorad). Membranes were blocked with 5% milk and incubated with the primary antibody overnight at 4 °C. Membranes were washed with 0.05% PBS-T and reacted with the secondary antibody for 1 h in 5% milk. The proteins were detected using the anti-lin28a antibody (Cell Signaling technology, D9F5), anti-lin28b antibody (Cell Signaling technology, 4196S), anti-rbfox1 (NovusBio, NBP2-13169SS), at 1:1000 and anti-hrnp c antibody […]
(§4) (Abcam, AB133607) at 1:10000 dilutions. […]
(§5) on a ChemiDoc MP imager (Biorad). The intensity of the signal was quantified using the ImageJ-Fiji software. […]

[2] = target: T1, Lin28_ZKD (Homo sapiens, UniProt Q9H9Z2); assay: Fluorescence polarization competition assay (displacement of let7FAM from Lin28_ZKD); type: binding; conditions: competition FP, conjugate vs parent
T1 construct: construct encoding amino acids 124–186 of human Lin28; His6; made in house; host or cells: Escherichia coli BL21 (DE3) Codon+ (RIL)
T1 sequence (Q9H9Z2 124-186): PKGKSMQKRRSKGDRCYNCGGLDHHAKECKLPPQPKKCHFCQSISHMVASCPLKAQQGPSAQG
Experimental: (§6) Fluorescence Polarization Assay. Fluorescence polarization titration assay was carried out by titrating Lin28_ZKD protein into FAM-labeled PreE-let-7 at a 10 nM final concentration and buffer (10 mM HEPES, 150 mM NaCl, 10 µM ZiCl2, pH 7,4). The assay plate was briefly vortexed, and air bubbles were removed by spinning at 1000 rpm. The fluorescence anisotropy was measured on a Spectra Max Paradigm multimode plate reader (Molecular Devices). The fluorescence polarization competition […]
preE-let-7. The concentration of Lin28_ ZKD is kept at 40 nM, a value in the range of the dissociation constant of Lin28_ZKD and preE-let-7 determined through fluorescence polarization titration assay, whereas preE-let-7 concentration is kept constant at 10 nM. FP competitive binding assays were performed on 384-well plates (#3575, Corning) with a total well volume of 10 µL.
(§7) Fluorescence polarization readings were transferred into Prism 7.0 (GraphPad). All fluorescence polarization assays were repeated at least three times and the anisotropy values fitted using GraphPad Prism software using 1:1 binding/inhibition model. […]

[3] = system: myc-Lin28A; assay: Ubiquitination assay of myc-Lin28A in 22Rv1 cells; type: cell-based; conditions: HA-Ub co-transfected, 500 nM, 48 h, anti-HA western blot after cMyc IP
Experimental: as §1, §2, §3, §4, §5

[4] = system: Lin28A; assay: Pull-down RNA ELISA, gymnosis, anti-Lin28A; type: cell-based, human; conditions: 3'-biotin conjugates, K562 cells, 2 µM, 24 h; streptavidin plate; vs mock or FUS antibody
Source text: Humans express two paralogs of the protein, LIN28 (Lin28A) and LIN28B (Lin28B), that play key roles in development, metabolism, and pluripotency. ^[34] Lin28 proteins are abundantly expressed during embryonic development, as well as in several tumors and tumor‐derived cell lines. ^[35] […] In order to confirm that RNA‐PROTACs bind to endogenous Lin28 in cells, we performed a pull‐down RNA ELISA assay that we have previously described. ^[36] Thus, we conjugated a biotin group to the 3′ ends of ORN3P1 and ORN7P1 and added these reagents separately on to myelogenous leukemia K562 cells. We incubated lysates from treated cells on streptavidin‐coated plates so as to capture the RNA‐PROTACs present in the cell lysates. We then assayed for the presence of Lin28A in the plates using an anti‐Lin28A antibody and a negative control anti‐FUS antibody. […]
as §3, with “Membranes were blocked with 5% milk and incubated with the primary antibody overnight at 4 °C. Membranes were washed with 0.05% PBS-T and reacted with the secondary antibody for 1 h in 5% milk.” left out
as §5

[5] = system: Lin28A; assay: Western blot of Lin28A in NT2/D1 cells; type: cell-based, human; conditions: 2 μM, three independent experiments
Source text: Finally, we tested RNA‐PROTACs for their ability to degrade their target in two cell lines: the embryonic NT2/D1 cell line, which expresses high levels of Lin28A, ^[13a] and K562 cells which express Lin28A and Lin28B. […] Finally, we co‐treated K562 cells with ORN3P1 and MG132, a reversible inhibitor of the 26S proteasome. […] In order to explore the versatility of RNA‐PROTACs with non peptide‐based VHL ligands, we conjugated small‐molecule VH032 ^[38] to ORN3 via an amino linker to yield ORN3VH032 (Figure S1). […]

[6] = target: T1, Lin28_ZKD; assay: Fluorescence polarization titration, Lin28_ZKD binding to preE-let-7f-1-FAM; conditions: Lin28_ZKD titrated into FAM-labeled preE-let-7, 10 nM; 10 mM HEPES, 150 mM NaCl, pH 7.4; read-out: K D of the Lin28_ZKD/let7FAM interaction
Experimental: as §6, with “Devices).” for “Devices). The fluorescence polarization competition”
as §7

| Compound | ubiquitination of QKI [1] | competition for Lin28_ZKD relative to parent unconjugated oligonucleotides [2] | ubiquitination of myc-Lin28A [3] | Lin28A pull-down signal [4] | reduction of Lin28A [5] | Kd [6] |
| --- | --- | --- | --- | --- | --- | --- |
| CC[C@H](C)[C@H](NC(=O)[C@H](Cc1ccc(O)cc1)NC(=O)[C@@H]1C[C@@H](O)CN1C(=O)[C@H](C)NC(=O)[C@H](CC(C)C)NC(=O)CCCCCNC(=O)[C@@H](N)CSC1CC(=O)N(CCOP(=O)(S)OC[C@H]2O[C@@H](n3cnc4c(N)ncnc43)[C@H](OCCOC)[C@@H]2OP(=O)(S)OC[C@H]2O[C@@H](n3cnc4c(=O)[nH]c(N)nc43)[C@H](OCCOC)[C@@H]2OP(=O)(S)OC[C@H]2O[C@@H](n3cnc4c(=O)[nH]c(N)nc43)[C@H](OCCOC)[C@@H]2OP(=O)(S)OC[C@H]2O[C@@H](n3cnc4c(N)ncnc43)[C@H](OCCOC)[C@@H]2OP(=O)(S)OC[C@H]2O[C@@H](n3cnc4c(=O)[nH]c(N)nc43)[C@H](OCCOC)[C@@H]2OP(=O)(S)OC[C@H]2O[C@@H](n3cnc4c(N)ncnc43)[C@H](OCCOC)[C@@H]2OP(=O)(S)OC[C@H]2O[C@@H](n3cc(C)c(=O)[nH]c3=O)[C@H](OCCOC)[C@@H]2OP(=O)(S)OC[C@H]2O[C@@H](n3cnc4c(N)ncnc43)[C@H](OCCOC)[C@@H]2OP(=O)(S)OC[C@H]2O[C@@H](n3cnc4c(N)ncnc43)[C@H](OCCOC)[C@@H]2OP(=O)(S)OC[C@H]2O[C@@H](n3cc(C)c(N)nc3=O)[C@H](OCCOC)[C@@H]2OP(=O)(S)OC[C@H]2O[C@@H](n3cc(C)c(=O)[nH]c3=O)[C@H](OCCOC)[C@@H]2O)C1=O)C(=O)O (stereo partly drawn) [ORN7P1] | showed no such effects | competed slightly more strongly | showed a smear on the gel towards higher molecular weight | strong signal for Lin28A protein | ~50% | – |
| Let7FAM: FAM_GGGGUAGUGAUUU UACCCUGUUCAGGAGAU, PO-RNA; fluorescent probe ({FAM}-rGrGrGrGrUrArGrUrGrArUrUrUrUrArCrCrCrUrGrUrUrCrArGrGrArGrArU) | – | – | – | – | – | 27 nM |
